The target of data set [1] is crude intestinal α-glucosidase. Nature of the data set: In vitro alpha-glucosidase inhibition (p-nitrophenyl-α-D-glucopyranoside). The data set is classed as biochemical. To be noted: ± SEM. How it is done:
3.6. Alpha-glucosidase inhibition protocol
α-Glucosidase inhibitory activities was determined as per reported methods. 10 μL of test samples (5 mg/mL DMSO solution) were altered in 100 μL of 100 mM-phosphate buffer (pH 6.8) in 96-well microplate and incubated with 50 μL of crude intestinal α-glucosidase for 5 min before 50μL substrate (5 mM, p-nitrophenyl-α-D-glucopyranoside prepared in same buffer) was […]
plus384) for 5 min after incubation with substrate. Individual blanks for test samples were prepared to correct background absorban ce where substrate was replaced with 50μL of buffer.
Control sample contained 10 μL DMSO in place of test samples. Percentage of enzyme inhibition was calculated as (1-B/A) x 100 where A represents absorbance of control without test samples, and B represents absorbance in presence of test samples. […]

`O=C1N/C(=N/c2nccs2)S/C1=C\c1cc2[nH]ccc2c(Cl)c1[N+](=O)[O-]` [Compound 3] returned a melting point of 235 to 237 °C. The compound also gave an IC50 in data set [1] of 8.7 ± 0.2 µM. `O=C1N/C(=N/c2nccs2)S/C1=C/c1cc(F)c2cc[nH]c2c1` [Compound 4, (2Z,5E)-5-((4-fluoro-1H-indol-6-yl)methylene)-2-(thiazol-2-ylimino)thiazolidin-4-one] gave a melting point of 237 to 239 °C. In data set [1], this compound gave an IC50 of 2.7 ± 0.7 µM. As for `O=C1NC(=Nc2nccs2)SC1=Cc1cc2[nH]ccc2cc1F` [Compound 5, (2Z,5E)-5-((5-fluoro-1H-indol-6-yl)methylene)-2-(thiazol-2-ylimino)hiazolidine-4-one], the melting point lay in the range of 234 to 236 °C.

As for `O=C1N/C(=N/c2nccs2)S/C1=C\c1cc(C(F)(F)F)c2cc[nH]c2c1O` [Compound 6], the melting point was 238 to 240 °C. In data set [1], this compound returned a half-inhibitory concentration (IC50) of 4.5 ± 0.7 µM.

The compound `O=C1N/C(=N/c2nccs2)S/C1=C\c1cc(O)c2cc[nH]c2c1O` [Compound 7] showed a melting point of 238 to 241 °C. Moreover, in data set [1], the IC50 amounted to 3.5 ± 0.8 µM. In the same order, the values of `COc1cc2cc[nH]c2c(O)c1/C=C1\S/C(=N\c2nccs2)NC1=O` [Compound 8] are 238 to 241 °C and 8.7 ± 0.8 µM.

`CN(C)c1cc(/C=C2\S/C(=N\c3nccs3)NC2=O)cc2[nH]ccc12` [Compound 9]: the melting point was in the range of 234 to 237 °C. In addition, the half-inhibitory concentration (IC50) in data set [1] worked out at 23.2 ± 0.4 µM. In turn, `N#Cc1cc(/C=C2\S/C(=N\c3nccs3)NC2=O)cc2[nH]ccc12` [Compound 10] displayed a melting point of 239 to 242 °C. Further, the concentration for half-maximal inhibition (IC50) in data set [1] was 24.6 ± 0.2 µM. Compound `O=C1N/C(=N/c2nccs2)S/C1=C\c1c(O)cc2cc[nH]c2c1Cl` [Compound 11] displayed a melting point of 236 to 239 °C. In addition, it took 7.85 ± 0.2 µM to reach half-maximal inhibition in data set [1] (IC50).

`O=C1N/C(=N/c2nccs2)S/C1=C\c1cc(O)c2cc[nH]c2c1Cl` [Compound 12]: the melting point fell in the range of 236 to 239 °C. In data set [1], this compound came in with an IC50 of 9.1 ± 0.3 µM.

`O=C1N/C(=N/c2nccs2)S/C1=C\c1cc2[nH]ccc2c(Cl)c1Cl` [Compound 14] displayed a melting point of 231 to 233 °C. For the same compound, in data set [1], the half-maximal inhibitory concentration (IC50) came out at 13.5 ± 0.4 µM. In the same order, the values of `O=C1N/C(=N/c2nccs2)S/C1=C\c1cc2[nH]ccc2c(Cl)c1Br` [Compound 15] are 241 to 243 °C and 28.4 ± 0.8 µM. Turning to `O=C1N/C(=N/c2nccs2)S/C1=C\c1cc(Br)c2cc[nH]c2c1Cl` [Compound 16], the melting point lay within 240 to 242 °C. This compound had an IC50 in data set [1] of 26.7 ± 0.3 µM. In the same order, the values of `Cc1c(Br)c(/C=C2\S/C(=N\c3nccs3)NC2=O)cc2[nH]ccc12` [Compound 17] are 242 to 245 °C and 31.5 ± 0.5 µM. In the same order, the values of `Cc1c(/C=C2\S/C(=N\c3nccs3)NC2=O)cc2[nH]ccc2c1Br` [Compound 18] are 239 to 242 °C and 23.3 ± 0.4 µM. Turning to `O=C1N/C(=N/c2nccs2)S/C1=C\c1cccc(O)c1` [Compound 19], in data set [1], the IC50 was determined as 19.8 ± 0.6 µM. Regarding `O=C1N/C(=N/c2nccs2)S/C1=C\c1c(O)cc2cc[nH]c2c1Br` [Compound 20, (2Z,5Z)-5-((7-bromo-5-hydroxy-1H-indol-6-yl)methylene)-2-(thiazol-2-ylimino)thiazolidin-4-one], the melting point lay within 234 to 237 °C. In addition, in data set [1], the IC50 is 29.4 ± 0.9 µM.

Values taken from article PMC9571711, “New Biologically Hybrid Pharmacophore Thiazolidinone-Based Indole Derivatives: Synthesis, In Vitro Alpha-Amylase and Alpha-Glucosidase along with Molecular Docking Investigations” (Molecules, 2022).
